Entries after “also recorded” stand apart in the source; their conditions may differ. No end group written: not given here.
What was measured:
TNF-α/TNFR1 = experiment: SPR analysis, TNF-α binding to chip-immobilized TNFR1; parameters: species or system human; conditions: H-TL1 0.5 and 1 μM; hrTNF-α 100 nM; sTNFR1 on CM5 chip, BIAcore T200; 360 s association, 200 s dissociation
Method: The T7Select1-2b display vector, T7 select primers, blocking reagent, and elution buffer were purchased from Novagen (Merck, Kenilworth, NJ, USA). […] DSS (36–50 kDa) was bought from MP Biomedicals (Solon, OH, USA). MTT, actinomycin D, and LPS were purchased from Sigma-Aldrich (St. Louis, MO, USA).
sTNFR1 (100 μg/mL) was covalently immobilized onto a CM5 sensor chip by the BIAcore T200 system (Biacore, GE Healthcare) following manufacturer’s instructions. To determine whether H-TL1 inhibits the binding of TNF-α to TNFR1, hrTNF-α was diluted in running buffer at 100 nM with or without different concentrations of H-TL1 (0.1, 0.5, and 1 μM) and subsequently passed over the sTNFR1-immobilized chip for 360 s, followed by dissociation for 200 s. The response unit indicates binding ability.

[1] = system: mRNA expression of pro-inflammatory cytokines in colon tissue of DSS mice; experiment: Real-time PCR, cytokine mRNA in DSS-induced colitis; type: in vivo, mouse; conditions: H-TL1 1 mg/kg; DSS induced 1.73- to 41-fold increases; n = 3
Method: (§1) Total RNA was extracted from colon tissue specimens or cells using Trizol reagent (Takara) according to the manufacturer’s instructions and was then reverse transcribed using random primers. Real-time PCR was performed on a StepOne Real-Time PCR System (Applied Biosystems, Foster City, CA, USA) to analyze the mRNA expression levels of IL-8, TNF-α, IL-1β, IL-6, VCAM-1, and ICAM-1. The relative fold changes of target gene expression were comparatively quantified by the 2^−ΔΔCt method. GAPDH was chosen as the internal control gene, and samples without treatment were designated as the comparing reference. Primers used in this study were based on published sequences.
To induce colitis, 6–8 week old male BALB/c mice were administered 2.5% DSS solution in their drinking water for 7–8 consecutive days, ad libitum. Importantly, 30–40 kDa DSS was used to establish the animal model in this study because it is known to induce more severe colitis than 5 and 500 kDa DSS [37]. The mice were concomitantly administered H-TL1 (0.5 or 1 mg/kg) once daily for 7–8 consecutive days by intraperitoneal injection. Establishment of the DSS-induced colitis was evidenced by an increase in DAI, with associated weight loss, loose stool consistency, and presence of blood in the feces. DAI was monitored during the entire experiment and was assessed according to the method described in Table 1.

[2] = system: NF-κB and MAPK activation in colonic tissue of DSS mice; experiment: Western blot of colonic tissue in DSS-induced colitis; type: in vivo, mouse; conditions: H-TL1 vs. vehicle, p-ERK (Thr202/Tyr204), p-JNK (Thr183/Tyr185), p-IκB (Ser32/36)
Method: For Western blotting, the cell or tissue specimen extracts were resolved in a 10% SDS-PAGE gel, and then the separated proteins were transferred to a nitrocellulose filter membrane. The antigens were detected by using specific antibodies against total and phosphorylated IκB, p38, ERK, and JNK followed by incubation with the respective secondary antibodies. GAPDH was simultaneously detected as the control to compare the protein loading in each lane. The mouse monoclonal anti-IκB, mouse monoclonal anti-p-IκB (Ser32/36), rabbit monoclonal anti-ERK, and rabbit monoclonal anti-p-ERK (Thr202/Tyr204) antibodies were from Cell Signaling Technologies (Beverly, MA, USA). The mouse polyclonal anti-p-p38 (Thr180/Tyr182), rabbit polyclonal anti-p38, rabbit monoclonal anti-p-JNK (Thr183/Tyr185), and mouse monoclonal anti-JNK antibodies were from Thermo Fisher Scientific (Rockford, IL, USA). The rabbit monoclonal anti-GAPDH antibody was from Santa Cruz Biotechnology (Santa Cruz, CA, USA), and the fluorescent-labeled secondary antibodies were from Li-COR Biosciences (Lincoln, NE, USA).
To induce colitis, 6–8 week old male BALB/c mice were administered 2.5% DSS solution in their drinking water for 7–8 consecutive days, ad libitum. […] DAI was monitored during the entire experiment and was assessed according to the method described in Table 1.

[3] = system: HEK-293 cells, TNF-α-induced expression of pro-inflammatory factors; experiment: Real-time PCR, TNF-α-induced gene expression in HEK-293 cells; type: cell-based, human; conditions: TNF-α 20 ng/mL, 2^−ΔΔCt, GAPDH, n = 3
Text: NF-κB activation through TNF-α/TNFR interactions upregulates the expression of chemokines and adhesion factors such as IL-8, TNF-α, ICAM-1, and VCAM-1 [25, 26]. To determine whether H-TL1 inhibits TNF-α-mediated pro-inflammatory activity, we further assessed the inhibitory activity of H-TL1 on TNF-α-induced expression of these genes in HEK-293 cells.
The H. cyanocinctus specimens were captured during September 2005 in the South China Sea near Guangdong Province, People’s Republic of China. After collection, the snakes were killed, and the venom glands were isolated and immediately frozen in liquid nitrogen until use. HEK-293 human embryonic kidney and L929 mouse fibroblast cell lines were obtained from ATCC and cultured in Dulbecco’s modified Eagle’s medium (DMEM, Sigma-Aldrich, St. Louis, MO, USA) containing 10% (v/v) heat-inactivated fetal bovine serum (FBS, Gibco, BRL, Grand Island, NY, USA) at 37 °C in an atmosphere of 5% CO2. The BLT5403 E. coli strain (used as the phage host strain) was from Novagen (Merck) and was cultured at 37 °C for propagation. The specific pathogen-free (SPF) male BALB/c and C57BL/6 mice (both 6–8 weeks old), weighing 20 ± 2 g were purchased from Shanghai SLAC Laboratory Animal Co., Ltd. (Shanghai, China). The mice were housed in animal facilities with 50% humidity under a 12-h light-dark cycle, fed a standard pellet diet, and provided with tap water ad libitum. The animal experimental protocols in this research, including venom gland isolation and the mouse study, were approved by the Animal Care and Use Committee of the Second Military Medical University.
as §1

[4] = system: LPS-induced lung tissue damage, C57BL/6 mice; experiment: Lung histopathology in LPS-induced acute shock; type: in vivo, mouse; conditions: 12 h after LPS; H&E 200×; n = 8
Method: The LPS-induced acute shock model was established in male C57BL/6 mice (6–8 weeks old) that were randomly allocated to five groups. LPS was administered (15 mg/kg body weight) to induce acute shock. The LPS- or normal saline-treated mice were injected with 100 μL of normal saline with or without LPS intraperitoneally, while the H-TL1 and LPS-treated mice were each administered H-TL1 at three doses of 20, 40, and 80 μg/kg 1, 3, and 5 h after the LPS injection (Figure 5A). The mice were observed every 4 h to evaluate mortality.
To assess lung damage, lung tissues were excised, inflated with 4% neutral formalin, and H&E stained 12 h following LPS injection. The lung parenchyma was examined by light microscopy and graded based on the degree of congestion, edema, inflammation, and hemorrhage. Each characteristic was scored on a scale of 0 to 3 (0, absent; 1, light; 2, moderate; and 3, strong).

mammalian cells = experiment: Cytotoxicity toward mammalian cells (general statement); type: cell-based; conditions: conclusion statement

Substance: ATSKPSLKC-OH [H-TL1]
- attenuation of SPR response of TNF-α to TNFR1 (TNF-α/TNFR1): inhibits the association of TNF-α with sensor chip-immobilized TNFR1; also recorded: the elicited response was markedly attenuated
- mRNA expression of TNF-α, IFN-γ, IL-1β, and IL-6 in DSS colitis [1]: significantly reduced these effects
- activation (phosphorylation) of JNK, ERK, and IκB in colonic tissue [2]: JNK, ERK, and IκB were activated; however, this effect was inhibited by H-TL1 treatment
- TNF-α-induced expression of ICAM-1 [3]: suppresses TNF-α-induced expression of IL-8, TNF-α, ICAM-1, and VCAM-1 in a concentration-dependent manner
- TNF-α-induced expression of IL-8 [3]: suppresses TNF-α-induced expression of IL-8, TNF-α, ICAM-1, and VCAM-1 in a concentration-dependent manner
- TNF-α-induced expression of TNF-α [3]: suppresses TNF-α-induced expression of IL-8, TNF-α, ICAM-1, and VCAM-1 in a concentration-dependent manner
- TNF-α-induced expression of VCAM-1 [3]: suppresses TNF-α-induced expression of IL-8, TNF-α, ICAM-1, and VCAM-1 in a concentration-dependent manner
- lung parenchymal damage and inflammatory cell infiltration [4]: markedly reduced lung parenchymal damage and inflammatory cell infiltration
- cytotoxicity toward mammalian cells (mammalian cells): little cytotoxicity toward mammalian cells

— publication PMC5133935, “Hydrostatin-TL1, an Anti-Inflammatory Active Peptide from the Venom Gland of Hydrophis cyanocinctus in the South China Sea” (International Journal of Molecular Sciences, 2016)
